{"source": "patent US6599507B2", "about": "“Composition for the treatment of immune deficiencies and methods for its preparation and use” (Ardenia Investments, Ltd., priority 1998, dated 2003)", "molecules": {"B1": {"name": "AFP: Alpha-fetoprotein isolated from human cord blood, more than 99% purity (protein, UniProt P02771 19-609, looked up)", "Alpha-fetoprotein": "RTLHRNEYGIASILDSYQCTAEISLADLATIFFAQFVQEATYKEVSKMVKDALTAIEKPTGDEQSSGCLENQLPAFLEELCHEKEILEKYGHSDCCSQSEEGRHNCFLAHKKPTPASIPLFQVPEPVTSCEAYEEDRETFMNKFIYEIARRHPFLYAPTILLWAARYDKIIPSCCKAENAVECFQTKAATVTKELRESSLLNQHACAVMKNFGTRTFQAITVTKLSQKFTKVNFTEIQKLVLDVAHVHEHCCRGDVLDCLQDGEKIMSYICSQQDTLSNKITECCKLTTLERGQCIIHAENDEKPEGLSPNLNRFLGDRDFNQFSSGEKNIFLASFVHEYSRRHPQLAVSVILRVAKGYQELLEKCFQTENPLECQDKGEEELQKYIQESQALAKRSCGLFQKLGEYYLQNAFLVAYTKKAPQLTSSELMAITRKMAATAATCCQLSEDKLLACGEGAADIIIGHLCIRHEMTPVNPGVGQCCTSSYANRRPCFSSLVVDETYVPPAFSDDKFIFHKDLCQAQGVALQTMKQEFLINLVKQKPQITEEQLEAVIADFSGLLEKCCQGQEQEVCFAEEGQKLISKTRAALGV"}, "B2": {"name": "Rat AFP: Rat alpha-fetoprotein isolated from neonatal rat serum by immunoaffinity (protein, UniProt P02773 25-611, looked up)", "Alpha-fetoprotein": "RVLHTNEFGIESTLDSSQCPTEKNMFNVATIVVAQFVQDATKAEVNKMSSDALAAMKENTGDGCLENQLSVFLDEICHETELSNKYGFSGCCNQSGVERHQCLLARKKTAPDSVPPFHFPETAESCPAYEENRAMSINTFIYDVSKRNPFLYAPTILYLAAQYDKAVPACCKADNMEECFQTKRASMAKELREGSMLNEHVCAVIRKFGSRNLQAVLIIKLSQKFPKANITEIRKLALDVAHIHEQCCHGNAMECLQDGESVMTHMCSQQEILSSKTAECCKLPTIELGYCIIHAENGDKPEGLTLNPSEFLGDRNFAQFSSEEKLLFMASFLHEYSRNHPNLPVSVILKTAKSYQEILEKCSQSETPSKCQDNMEEELQKHIQESQALAKQSCNLYQKLGPYYLQNLFLIGYTRKAPQLTSAELIDLTGKMVSIASTCCQLSEEKRSACGEGLADIYIGHLCLRHEANPVNSGINHCCSSSYSNRRLCITSFLRDETYVPPPFSEDKFIFHKDLCQAQGRALQTMKQELLINLVKQKPEMTEEQHAAVTADFSGLLEKCCKDQDQEACFAKEGPKLISKTREALGV"}}, "key": {"human AFP": {"biological_target": "T1, human AFP (Homo sapiens, UniProt P02771)", "T1 construct": "from tissue; host or cells: human cord blood", "experiment": "Competitive substitution of [3H]arachidonic acid from the AFP binding site (Scatchard)", "protocol": "To determine N-AAP affinity to human AFP a competitive substitution of [5, 6, 8, 9, 11, 12, 14, 15-^3H] arachidonic from the protein's binding site was used. To tubes containing 0.05 nM AFP in 1 ml 0.1 M bicarbonate buffer and 0.7 nM [3H] arachidonic acid and the increasing amounts of arachidonic acid or N-AAP (5-5000 nM) were added. The tubes were incubated for 2 hr at room temperature. To separate protein-bound and free fractions of [3H] arachidonic acid 0.5 ml of 0.5% suspension of activated carbon was added to each tube and incubated at 4° C. for 30 min. The carbon was sedimented by centrifugation at 3000 g, aliquots were added to 10 ml scintillating mixture and the vials were measured in beta-counter.\nThe binding parameters of arachidonic acid and N-AAP and the number of binding sites per protein molecule were calculated according to Scatchard (Scatchard O., Ann. N.Y. Acad. Sci. 51., p 660-664, 1949)."}, "[1]": {"system": "antibody-forming cells (AFC) in the spleen of mice immunized with sheep erythrocytes", "experiment": "Humoral immune response: count of antibody-forming cells (AFC) in the spleen according to Cunningham", "type": "in vivo, mouse", "settings": "for relative amount of AFC / total AFC amount: CBA mice, i.v., sheep erythrocytes i.p.; for immunogenic / immunostimulating activity, effect on humoral immune response (in words): mice immunized with sheep erythrocytes", "protocol": "The influence of AFPIN-AAP complexes as well as their basic components on humoral immune response was estimated by counting the quantity of antibody-forming cells (AFC) in the spleen.\nAFP was administered intravenously to 10 mouse males of CBA line (weight 18-22 g) in a dose of 0.009 mg per capita. Simultaneously 5% sheep erythrocytes suspension was injected peritoneally (0.2 ml per capita) to both control and experimental animals. The control animals were also injected with the equal volume of NaCl isotonic solution intravenously.\nThe effect of AFP on humoral immune response was analyzed by counting the quantity of AFC in the spleen according to Cunningham (Cunningham A. J., Nature, v.207, p. 1106-1107, 1965) (per 10^6 spleen cells and per spleen).\nN-AAP was administered intravenously to 10 mouse males of CBA line (weight 18-22 g) in a dose of 0.09 mg per capita Simultaneously 5% sheep erythrocytes suspension was injected peritoneally (0.2 ml per capita). Control series were injected with 0.15 ml NaCl isotonic solution intravenously. The effect of N-AAP on humoral immune response was analysed by counting the quantity of AFC in the spleen according to Cunningham (per 10^6 spleen cells and per spleen).\n0.15 ml AFP/N-AAP complex was administered intravenously to 10 mouse males of CBA line (weight 18-22 g) in a dose of 0.009 mg AFP and 0.09 mg N-AAP per capita. Simultaneously 5% sheep erythrocytes suspension was injected peritoneally (0.2 ml per capita). Control series were intravenously injected with equal volumes of NaCl isotonic solution. The effect of the AFP/N-AAP complex on humoral immune response was analyzed by counting the quantity of AFC in the spleen according to Cunningham (per 10^6 spleen cells and per spleen).\n0.15 ml AFP/N-AAP complex was administered intravenously to 10 mouse males of CBA line (weight 18-22 g) in a dose of 0.009 mg AFP and 0.045 mg N-AAP per capita. Simultaneously 5% sheep erythrocytes suspension was injected peritoneally (0.2 ml per capita). Control series were intravenously injected with equal volumes of NaCl isotonic solution. The effect of the AFP/N-AAP complex on humoral immune response was analyzed by counting the quantity of AFC in the spleen according to Cunningham (per 10^6 spleen cells and per spleen).\n0.15 ml AFP/N-AAP complex was administered intravenously to 10 mouse males of CBA line (weight 18-22 g) in a dose of 0.009 mg AFP and 0.135 mg N-AAP per capita. Simultaneously 5% sheep erythrocytes suspension was injected peritoneally (0.2 ml per capita) Control series were intravenously injected with equal volumes of NaCl isotonic solution. The effect of the AFP/N-AAP complex on humoral immune response was analyzed by counting the quantity of AFC in the spleen according to Cunningham (per 10^6 spleen cells and per spleen).\nIn order to determine the effect of the inventive complex, 0.15 ml AFP/N-AAP complex was administered intravenously to 10 mouse males of CBA line (weight 18-22 g) in the dose of 0.009 mg rat AFP and 0.09 mg N-AAP per capita. Simultaneously 5% sheep erythrocytes suspension was injected peritoneally (0.2 ml per capita). Control series were injected intravenously with equal volumes of isotonic NaCl solution. The effect of rat AFP/N-AAP complex on humoral immune response was analyzed by counting the quantity of AFC in the spleen according to Cunningham (per 10^6 spleen cells and per spleen)."}, "random breed male mice": {"system": "random breed male mice", "experiment": "Acute toxicity, single intravenous injection, method of Litchfield and Wilcoxon", "type": "in vivo, mouse", "protocol": "The toxicity of N-AAP was studied in random breed male mice (19-24 g). A water solution of N-AAP was injected once slowly in the tail vein of mice in a range of doses 40-70 mg/kg. Each group of mice included 6 animals, at least The assessment of acute toxicity was carried out according to the method of Litchfield et al. (Litchfield J. T., Wilcoxon F., J. Pharmacol. Exptl. Therap., Vol.96, P. 99-103, 1949)."}, "[2]": {"settings": "mice, single i.v. injection in tail vein"}}, "note": "“Also recorded” adds a separate entry of the source."}
{"molecule": "CCCCC/C=C\\C/C=C\\C/C=C\\C/C=C\\CCCC(=O)NCCOP(=O)(O)O", "note": "[N-AAP, N-arachidonoyl aminoethylphosphate]", "values": [{"measurement": "Ki", "setting": "human AFP", "result": 333, "unit": "nM"}, {"measurement": "relative amount of AFC in comparison with control (in words)", "setting": "[1]; 5-th day after injection", "result": "not significantly changed"}, {"measurement": "relative amount of AFC", "setting": "[1]; 5-th day after injection", "result": "342.2±28.5", "unit": "per 10^6 cells"}, {"measurement": "total AFC amount", "setting": "[1]; 5-th day after injection", "result": "36.0±8.7 10^3 per spleen"}, {"measurement": "immunogenic / immunostimulating activity, effect on humoral immune response (in words)", "setting": "[1]", "result": "does not exhibit immunogenic activity; also recorded: no immunogenic activity"}, {"measurement": "DL10", "setting": "random breed male mice; [2]", "result": "46 mg/kg;"}, {"measurement": "DL90", "setting": "random breed male mice; [2]", "result": 87, "unit": "mg/kg"}, {"measurement": "DL50", "setting": "random breed male mice; mice, single i.v. injection in tail vein, p = 0.05", "result": "63 (54.8 ÷ 72.5) mg/kg at p = 0.05;"}, {"measurement": "therapeutic index", "setting": "random breed male mice; mouse, in vivo", "result": 10}]}
{"molecule": "CCCCC/C=C\\C/C=C\\C/C=C\\C/C=C\\CCCC(=O)O", "note": "[arachidonic acid, reference compound]", "values": [{"measurement": "n (number of binding sites per protein molecule)", "setting": "human AFP; three independent determinations, Scatchard", "result": "> 1.2"}]}
{"molecule": "B1", "values": [{"measurement": "total AFC amount in comparison with control (in words)", "setting": "[1]; 5-th day after injection", "result": "not significantly changed"}, {"measurement": "lower relative amount of AFC in comparison with control group", "setting": "[1]; 5-th day after injection, AFP 0.009 mg per capita i.v.", "result": 30, "unit": "%"}, {"measurement": "relative amount of AFC", "setting": "[1]; 5-th day after injection", "result": "255.5±13", "unit": "per 10^6 cells"}, {"measurement": "total AFC amount", "setting": "[1]; 5-th day after injection", "result": "23.6±1.5 10^3 per spleen"}, {"measurement": "immunogenic / immunostimulating activity, effect on humoral immune response (in words)", "setting": "[1]", "result": "reduces or does not significantly effect the immunogenic characteristics of sheep erythrocytes"}]}
{"molecule": "B2", "values": [{"measurement": "relative amount of AFC", "setting": "[1]; 5-th day after injection", "result": "428.1±11.5", "unit": "per 10^6 cells"}, {"measurement": "total AFC amount", "setting": "[1]; 5-th day after injection", "result": "60.3±13.5 10^3 per spleen"}, {"measurement": "immunogenic / immunostimulating activity, effect on humoral immune response (in words)", "setting": "[1]", "result": "no immunogenic activity"}]}
